Values of other authors as cited in US6589787B2, “T-type calcium channel variants; compositions thereof; and uses” (Syntex (U.S.A.) LLC, priority 1998, dated 2003).

System: T-type Ca^2+ current
Conditions: freshly dissected neurons from dorsal root ganglia (DRG neurons) of adult rats

In the case of `CCC1(C)CC(=O)NC1=O` (stereo not shown) [ethosuximide], the “block of T-type Ca^2+ current” value is given as “fully block”.
